Here are results for one compound from patent US9040509B2, “Method of treating human skin and a skin care composition for use in such a method” (Pantarhei Bioscience B.V., priority 2002, dated 2015).

A short description of series [1]: Elimination half-life after single subcutaneous administration in rats. Type of series: in vivo. As to conditions: female, Sprague Dawley, rat; single sc dose 0.05, 0.5 or 5 mg/kg in arachidis oil; plasma. The procedure: To determine the in vivo stability of estetrol (E4) its elimination half-life in female Sprague Dawley rats was determined after a single subcutaneous administration (sc) at several dose levels.
Female Sprague Dawley rats were equipped with a permanent silatic heart catheter, as described by Kuipers et al. (1985, Gastroenterology, 88, 403-411). Rats were allowed to recover from surgery for 5 days and were than administered 0.05, 0.5, or 5 mg/kg E4 in 0.5 ml arachidis oil. E4 was injected in the neck area using a 1 ml syringe and 20 g needle. Blood samples were subsequently collected via the heart catheter in heparinized tubes at 0.5, 1, 2, 4, 8 and 24 hours. Erythrocytes were removed by centrifugation at 5000×g for 10 minutes at 4° C. and blood plasma was stored at −20° C. […] With each sample batch, a calibration curve with 6 calibrators was recorded. The calibration curve was calculated using linear regression (correlation coefficient>0.98), which permitted quantitation of plasma concentrations. […]
Plasma E4 concentration data were analysed with “WinNonLin, edition 3.1” and involved pharmacokinetic parameters for Cmax, AUC0-24 and half-life.

For series [2], the system named is rat uterine nuclear estrogen receptor. As to conditions: cited from earlier work.
The subject of another series is immature rat uterus. As to conditions: subcutaneously administered, Holinka et al., cited from earlier work.
The conditions of series [3]: intravenous, two adult women, cited from earlier work.
The subject of the next series is uterine vasodilation. As to conditions: intravenously administered; cited from earlier work.
The test system of series [4] is estrogen receptor in the human endometrium. As to conditions: Tseng et al., cited from earlier work.
Series [5] relates to human breast cancer cells (MCF-7). As to conditions: MCF-7, long term tissue culture; cited from earlier work.
The target of a further series is human ERβ (Homo sapiens (Human), UniProt Q92731). Description: Competitive steroid binding assay, recombinant human ERβ, [3H]E2 as labeled ligand. The settings on record: Cheng and Prusoff from measured IC50.
The target in another series is human ERα (Homo sapiens (Human), UniProt P03372). The series is described as follows: Competitive steroid binding assay, recombinant human ERα, [3H]E2 as labeled ligand. The settings on record: Cheng and Prusoff from measured IC50.
The test system of a further series is uterus. As to conditions: continuous administration from a subcutaneous depot; Martucci et al., 1977; cited from earlier work.
Series [6] relates to rat uterine cytosol estrogen receptor. The settings on record: cited from earlier work.

Like-named read-outs stand apart in the source and are kept apart here.

Sequence of human ERα (P03372 whole entry): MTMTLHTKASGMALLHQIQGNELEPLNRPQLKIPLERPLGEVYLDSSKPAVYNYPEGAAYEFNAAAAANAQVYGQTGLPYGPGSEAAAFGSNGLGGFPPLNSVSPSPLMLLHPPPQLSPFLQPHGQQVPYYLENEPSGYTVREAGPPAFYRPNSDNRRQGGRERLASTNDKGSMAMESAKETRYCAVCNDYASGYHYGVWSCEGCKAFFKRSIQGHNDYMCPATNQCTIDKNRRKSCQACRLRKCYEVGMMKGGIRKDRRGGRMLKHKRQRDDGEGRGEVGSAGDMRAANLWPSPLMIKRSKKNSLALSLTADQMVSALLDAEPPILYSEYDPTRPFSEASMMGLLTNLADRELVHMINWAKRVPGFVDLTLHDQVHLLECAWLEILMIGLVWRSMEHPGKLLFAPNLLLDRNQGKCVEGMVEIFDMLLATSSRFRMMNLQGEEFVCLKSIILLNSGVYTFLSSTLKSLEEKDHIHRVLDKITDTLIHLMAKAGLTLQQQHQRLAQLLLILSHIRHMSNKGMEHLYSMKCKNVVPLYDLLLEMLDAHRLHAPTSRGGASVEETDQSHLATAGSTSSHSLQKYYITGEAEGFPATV
Sequence of human ERβ (Q92731 whole entry): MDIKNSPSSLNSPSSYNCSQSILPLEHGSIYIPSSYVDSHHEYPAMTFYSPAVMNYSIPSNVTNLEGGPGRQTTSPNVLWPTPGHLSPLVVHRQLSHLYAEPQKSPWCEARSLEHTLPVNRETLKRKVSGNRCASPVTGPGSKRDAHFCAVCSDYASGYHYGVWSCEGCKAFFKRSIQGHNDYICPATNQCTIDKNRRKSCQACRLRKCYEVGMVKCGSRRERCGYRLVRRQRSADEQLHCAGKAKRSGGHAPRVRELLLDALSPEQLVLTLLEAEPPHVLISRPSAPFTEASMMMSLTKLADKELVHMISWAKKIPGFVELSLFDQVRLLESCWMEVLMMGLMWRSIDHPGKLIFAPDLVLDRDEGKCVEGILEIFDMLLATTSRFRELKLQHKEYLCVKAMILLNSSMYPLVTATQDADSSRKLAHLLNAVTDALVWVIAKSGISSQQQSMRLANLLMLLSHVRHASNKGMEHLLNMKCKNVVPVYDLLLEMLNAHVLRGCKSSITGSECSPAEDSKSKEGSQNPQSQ

`C[C@]12CC[C@@H]3c4ccc(O)cc4CC[C@H]3[C@@H]1[C@@H](O)[C@@H](O)[C@@H]2O` [E4, 1,3,5 (10)-estratrien-3,15α,16α,17β-tetrol] yielded a half-life in series [1] of 2 to 3 h. Moreover, the “relative binding affinity, of 17β-estradiol (100%)” value in [2] is listed as 0.3%; in [6], 0.5%. Besides, the uterotrophic activity entry with immature rat uterus (1979), with immature rat uterus (1980) and with uterus was “very weak uterotrophic activity” in each case. Further, in series [3] (urine), the excretion entry is “rapidly and completely excreted in urine as the glucosiduronate”. In addition, the metabolism result in [3] is on record as “virtually no metabolism except for conjugation took place”. For the same compound, in the series on uterine vasodilation, the “potency in uterine vasodilation, times less potent than estriol and 17β-estradiol” value is reported as 15 to 30 times. Also, in series [4] (1976), the “relative binding constant compared to 17β-estradiol (100%)” value is 6.25%. Besides, in series [4] (1978), the “relative binding to estrogen receptors, of 17β-estradiol” value was 1.5%. The “agonistic potency in in vitro cell proliferation relative to 17β-estradiol” value in series [5] is given as 2%. Further, the results for the inhibition constant (Ki) at human ERβ and at human ERα were 19 nM and 4.9 nM, respectively.

By half-life is commonly meant the time in which the quantity being followed falls by half. High values mean slow decline, low ones rapid decline. By Ki is commonly meant the dissociation constant of the complex between target and ligand, obtained from inhibition or displacement.
